Reference: patent publication US20050090505A1, “Methods of reducing risk of infection from pathogens” (priority 2003, published 2005)
Counter-ions that a name gives are not always drawn.

Experiments:
[1] = molecular target: T1, airway epithelial sodium currents (sodium channel) (UniProt A0A8I3MKE6+A0A8I3Q679+Q95165); test: Sodium channel blocking activity: inhibition of short circuit current (ISC) in airway epithelial monolayers mounted in Ussing chambers; assay type: cell-based, human, dog, sheep or rodent; details: for Fold Amiloride** (PSA 4022 = 100): relative potency for PSA 4022 = 100 using EC50 from PSA 4022 in same run
T1 sequence (A0A8I3MKE6 1-646): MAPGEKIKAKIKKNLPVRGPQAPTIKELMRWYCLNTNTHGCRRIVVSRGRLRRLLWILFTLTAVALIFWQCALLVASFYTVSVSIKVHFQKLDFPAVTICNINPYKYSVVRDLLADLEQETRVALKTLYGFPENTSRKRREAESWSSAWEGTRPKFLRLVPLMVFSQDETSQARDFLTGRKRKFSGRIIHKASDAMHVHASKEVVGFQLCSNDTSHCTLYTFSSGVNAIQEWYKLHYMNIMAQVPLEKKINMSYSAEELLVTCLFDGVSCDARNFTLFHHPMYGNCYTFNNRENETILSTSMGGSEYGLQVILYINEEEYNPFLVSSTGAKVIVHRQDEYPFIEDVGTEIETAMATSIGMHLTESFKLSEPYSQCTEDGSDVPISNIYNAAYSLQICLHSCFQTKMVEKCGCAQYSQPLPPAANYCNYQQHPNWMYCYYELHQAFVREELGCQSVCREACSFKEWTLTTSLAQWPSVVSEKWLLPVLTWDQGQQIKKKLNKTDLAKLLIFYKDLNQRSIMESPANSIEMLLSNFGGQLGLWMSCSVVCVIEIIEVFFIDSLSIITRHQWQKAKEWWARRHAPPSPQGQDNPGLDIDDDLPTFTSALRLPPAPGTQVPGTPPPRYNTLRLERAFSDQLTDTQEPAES
T1 sequence (A0A8I3Q679 1-649): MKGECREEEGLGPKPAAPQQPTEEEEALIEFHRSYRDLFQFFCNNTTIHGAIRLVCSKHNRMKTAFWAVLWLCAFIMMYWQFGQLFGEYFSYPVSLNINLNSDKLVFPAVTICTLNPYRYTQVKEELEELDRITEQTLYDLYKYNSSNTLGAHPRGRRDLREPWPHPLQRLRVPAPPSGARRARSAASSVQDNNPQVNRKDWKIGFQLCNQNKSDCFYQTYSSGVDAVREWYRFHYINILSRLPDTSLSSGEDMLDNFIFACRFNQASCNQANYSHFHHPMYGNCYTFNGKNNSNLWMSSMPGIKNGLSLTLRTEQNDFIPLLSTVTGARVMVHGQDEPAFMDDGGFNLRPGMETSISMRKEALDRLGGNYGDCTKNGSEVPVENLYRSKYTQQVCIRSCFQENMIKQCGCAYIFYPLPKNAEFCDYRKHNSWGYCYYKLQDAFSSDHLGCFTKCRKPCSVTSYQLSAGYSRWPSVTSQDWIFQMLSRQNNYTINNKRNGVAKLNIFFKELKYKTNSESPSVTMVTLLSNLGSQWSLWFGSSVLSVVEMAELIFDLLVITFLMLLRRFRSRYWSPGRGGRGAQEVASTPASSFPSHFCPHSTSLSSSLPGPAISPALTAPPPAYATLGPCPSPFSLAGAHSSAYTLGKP
T1 sequence (Q95165 1-641): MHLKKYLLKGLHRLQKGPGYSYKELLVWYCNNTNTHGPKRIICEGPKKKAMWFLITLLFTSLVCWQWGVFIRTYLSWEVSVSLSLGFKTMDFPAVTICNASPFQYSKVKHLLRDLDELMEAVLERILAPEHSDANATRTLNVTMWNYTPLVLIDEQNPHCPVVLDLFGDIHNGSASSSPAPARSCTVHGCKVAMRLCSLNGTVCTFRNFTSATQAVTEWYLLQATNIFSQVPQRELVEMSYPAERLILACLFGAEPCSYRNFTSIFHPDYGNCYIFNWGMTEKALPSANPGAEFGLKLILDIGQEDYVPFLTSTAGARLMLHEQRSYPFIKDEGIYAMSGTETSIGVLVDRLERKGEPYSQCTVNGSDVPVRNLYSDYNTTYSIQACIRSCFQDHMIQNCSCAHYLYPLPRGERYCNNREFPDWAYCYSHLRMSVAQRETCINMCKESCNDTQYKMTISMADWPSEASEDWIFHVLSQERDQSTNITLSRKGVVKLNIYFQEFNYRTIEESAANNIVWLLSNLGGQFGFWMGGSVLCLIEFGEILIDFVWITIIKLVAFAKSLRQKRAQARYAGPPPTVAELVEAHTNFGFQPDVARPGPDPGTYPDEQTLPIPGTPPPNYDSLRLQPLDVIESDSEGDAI
Procedure: In Vitro Measure of Sodium Channel Blocking Activity and Reversibility
One assay used to assess mechanism of action and/or potency of the compounds of the present invention involves the determination of lumenal drug inhibition of airway epithelial sodium currents measured under short circuit current (ISC) using airway epithelial monolayers mounted in Ussing chambers. Cells obtained from freshly excised human, dog, sheep or rodent airways are seeded onto porous 0.4 micron Snapwell™ Inserts (CoStar), cultured at air-liquid interface (ALI) conditions in hormonally defined media, and assayed for sodium transport activity (ISC) while bathed in Krebs Bicarbonate Ringer (KBR) in Using chambers. All test drug additions are to the lumenal bath with half-log dose addition protocols (from 1×10^−11 M to 3×10^−5 M), and the cumulative change in ISC (inhibition) recorded. All drugs are prepared in dimethyl sulfoxide as stock solutions at a concentration of 1×10^−2 M and stored at −20° C. Eight preparations are typically run in parallel; two preparations per run incorporate amiloride and/or benzamil as positive controls. After the maximal concentration (5×10^−5 M) is administered, the lumenal bath is exchanged three times with fresh drug-free KBR solution, and the resultant ISC measured after each wash for approximately 5 minutes in duration. Reversibility is defined as the percent return to the baseline value for sodium current after the third wash. All data from the voltage clamps are collected via a computer interface and analyzed off-line.
Dose-effect relationships for all compounds are considered and analyzed by the Prism 3.0 program. IC50 values, maximal effective concentrations, and reversibility are calculated and compared to amiloride and benzamil as positive controls.

With N=C(N)NCCCCCCCCCNC(=N)NC(=O)c1nc(Cl)c(N)nc1N (as salt: hydrochloride) [compound 19006, N-{9-[N′-(3,5-diamino-6-chloropyrazine-2-carbonyl)guanidino]nonyl}guanidine dihydrochloride] the melting point was 178 to 180 °C.

N=C(N)NCCCCCCCNC(=N)NC(=O)c1nc(Cl)c(N)nc1N (as salt: hydrochloride) [compound 19155, N-{7-[N′-(3,5-diamino-6-chloropyrazine-2-carbonyl)guanidino]heptyl}guanidine dihydrochloride] gave a melting point of 140 to 142 °C.

In the case of N=C(NCCCCCCCCCN)NC(=O)c1nc(Cl)c(N)nc1N (as salt: hydrochloride) [compound 19335, N-(9-aminononyl)-N′-(3,5-diamino-6-chloropyrazine-2-carbonyl)-guanidine dihydrochloride], the melting point is reported as 155 to 157 °C (dec.).

For N=C(NCCCCCCCCN)NC(=O)c1nc(Cl)c(N)nc1N (as salt: hydrochloride) [compound 19336, N-(8-aminooctyl)-N′-(3,5-diamino-6-chloropyrazine-2-carbonyl)-guanidine dihydrochloride], the melting point was 253 to 255 °C.

Work on N=C(NCCCCCCCCCCN)NC(=O)c1nc(Cl)c(N)nc1N (as salt: hydrochloride) [compound 19487, N-(10-aminodecyl)-N′-(3,5-diamino-6-chloropyrazine-2-carbonyl)-guanidine dihydrochloride] yielded a melting point of 168 to 170 °C.

Molecule N=C(N)NCCCCCCCCNC(=N)NC(=O)c1nc(Cl)c(N)nc1N (as salt: hydrochloride) [compound 19604, N-{8-[N′-(3,5-diamino-6-chloropyrazine-2-carbonyl)guanidino]octyl}-guanidine dihydrochloride] has a melting point of 130 to 132 °C.

Work on N=C(N)NCCCCCCCCCCNC(=N)NC(=O)c1nc(Cl)c(N)nc1N (as salt: hydrochloride) [compound 23608, N-{10-[N′-(3,5-diamino-6-chloropyrazine-2-carbonyl)guanidino]-decyl}guanidine dihydrochloride] yielded a melting point of 156 to 158 °C.

For N=C(NCCCCCCCCCCCCN)NC(=O)c1nc(Cl)c(N)nc1N (as salt: hydrochloride) [compound 23609, N-(12-aminododecyl)-N′-(3,5-diamino-6-chloropyrazine-2-carbonyl)-guanidine dihydrochloride], the melting point was 235 to 237 °C.

N=C(NCCCCCCCCCCCN)NC(=O)c1nc(Cl)c(N)nc1N (as salt: hydrochloride) [compound 23682, N-(11-aminoundecyl)-N′-(3,5-diamino-6-chloropyrazine-2-carbonyl)guanidine dihydrochloride] showed a melting point of 220 to 222 °C.

With N=C(N)NCCCCCCCCCCCCNC(=N)NC(=O)c1nc(Cl)c(N)nc1N (as salt: hydrochloride) [compound 23683, N-{12-[N′-(3,5-diamino-6-chloropyrazine-2-carbonyl)guanidino]dodecyl)guanidine dihydrochloride] the melting point was 145 to 147 °C.

N=C(N)NCCCCCCCCCCCNC(=N)NC(=O)c1nc(Cl)c(N)nc1N (as salt: hydrochloride) [compound 23991, N-{11-[N′-(3,5-diamino-6-chloropyrazine-2-carbonyl)guanidino]-undecyl}guanidine dihydrochloride] showed a melting point of 151 to 153 °C.

N=C(NCCCCC1CCN(CCO)CC1)NC(=O)c1nc(Cl)c(N)nc1N (as salt: hydrochloride) [compound 25193, N-(3,5-diamino-6-chloropyrazine-2-carbonyl)-N′-{4-[1-(2-hydroxyethyl)piperidin-4-yl]butyl}guanidine dihydrochloride] gave a melting point of 168 to 170 °C.

In the case of N=C(NCCCCc1ccc(OCC(O)COCC(O)CO)cc1)NC(=O)c1nc(Cl)c(N)nc1N (stereo not shown) [compound 15143, N-(3,5-diamino-6-chloropyrazine-2-carbonyl)-N′-(4-{4-[3-(2,3-dihydroxypropoxy)-2-hydroxypropoxy]phenyl}butyl)guanidine], the “Fold Amiloride** (PSA 4022 = 100)” value ([1]; Capped Pyrazinoylguanidines) is reported as 107 ± 11 and the melting point is reported as 73 to 82 °C (dec.).

For N#CCOc1ccc(CCCCNC(=N)NC(=O)c2nc(Cl)c(N)nc2N)cc1 [compound 16208, N-[4-(4-cyanomethoxyphenyl)butyl]-N′-(3,5-diamino-6-chloro-pyrazine-2-carbonyl)guanidine], the “Fold Amiloride** (PSA 4022 = 100)” value ([1]; Capped Pyrazinoylguanidines) was 52 ± 21 and the melting point was 129 to 132 °C.

For N=C(NCCCCc1ccc(OCC(=O)Nc2ccccc2)cc1)NC(=O)c1nc(Cl)c(N)nc1N [compound 17482, 2-(4-{4-[N′-(3,5-diamino-6-chloropyrazine-2-carbonyl)guanidino]-butyl}phenoxy)-N-phenylacetamide], the “Fold Amiloride** (PSA 4022 = 100)” value ([1]; Capped Pyrazinoylguanidines) was 39 ± 6 and the melting point was 168 to 170 °C.

In the case of CN(C)C(=S)Oc1ccc(CCCCNC(=N)NC(=O)c2nc(Cl)c(N)nc2N)cc1 [compound 17846, dimethylthiocarbamic acid O-(4-{4-[N′-(3,5-diamino-6-chloropyrazine-2-carbonyl)guanidino]butyl}phenyl) ester], the “Fold Amiloride** (PSA 4022 = 100)” value ([1]; Capped Pyrazinoylguanidines) is reported as 104 ± 49 and the melting point is reported as 102 to 105 °C.

With Cl.N=C(NCCCCc1ccc(OCCCc2nnn[nH]2)cc1)NC(=O)c1nc(Cl)c(N)nc1N [compound 17926, N-(3,5-diamino-6-chloropyrazine-2-carbonyl)-N′-(4-{4-[3-(1H-tetrazol-5-yl)propoxy]phenyl}butyl)guanidine hydrochloride] the “Fold Amiloride** (PSA 4022 = 100)” value ([1]; Capped Pyrazinoylguanidines) was 29 ± 12 and the melting point was 125 to 127 °C (dec.).

In the case of N=C(NCCCCCCCN)NC(=O)c1nc(Cl)c(N)nc1N [compound 18705, N-(7-aminoheptyl)-N′-(3,5-diamino-6-chloropyrazine-2-carbonyl)guanidine], the “Fold Amiloride** (PSA 4022 = 100)” value ([1]; Alaphatic Pyrazinoylguanidines) is reported as 8 ± 2, the EC50 ([1]; Selected Alaphatic Pyrazinoylguanidines (Formula II), mean ± spread, read-out: EC50) is reported as 0.099 ± 0.031 µM and the melting point is reported as 185 to 187 °C (dec.).
